Test results from patent US20210008161A1, “METHODS AND COMPOSITIONS FOR IMPROVED HOMOLOGY DIRECTED REPAIR” (CRISPR THERAPEUTICS AG, priority 2019, published 2021).

Assays:
[1] = tested on: CD34-expressing LT-HSPCs derived from human patients with sickle cell disease; assay: SCD gene correction (E6V to E6) by HDR and INDEL frequency by NGS in patient-derived cells
Description: The effect of i53 on HDR efficiency was evaluated in cells derived from patients with a sickle cell mutation in the HBB gene. Specifically, CD34-expressing LT-HSPCs derived from human patients with sickle cell disease were edited with SpCas9, R02 guide, and AAV.323 encoding a correction to the E6V mutation in the HBB gene.
Briefly, CD34-expressing LT-HSPCs were derived from plerixafor+GCSF-dual mobilized peripheral blood obtained from a human donor with sickle cell disease. The cells were seeded in Phase I media at a cell density of 2×10^5 cells/mL. Cells were cultured at 37° C. under normoxic conditions (i.e., oxygen 20%).
Editing of cells was performed following two days of in vitro culture. Briefly, 5×10^5 cells were electroporated with RNP containing 20 μg SpCas9 and 20 μg R02 sgRNA, AAV.323 at a dose of 10,000 MOI, and 1 μg mRNA encoding i53. The cells were incubated with AAV.323 for 1 hour prior to electroporation. The cells were edited by electroporation with R02+AAV.323+i53 mRNA and compared to control cells edited with R02 only, R02+AAV.323, or cells exposed to electroporation without RNP or AAV editing components (mock EP).
The efficiency of gene correction by HDR repair at the HBB gene locus was evaluated by NGS assay as described in Example 3. Frequency of INDELs at the R02 cut site was evaluated by NGS analysis. […]

patient-derived PBMCs = assay: SCD gene correction by HDR and INDEL frequency by NGS in patient-derived PBMCs; format: cell-based, human
Description: It was further evaluated if editing of patient-derived PBMCs in the presence of i53 would yield high levels of correction of the HBB gene. […] The PBMCs were expanded in StemSpan SFEM II (1×)+StemSpan CC100 (1×)+Dexamethasone 1 μM+hEPO 2 IU/mL at 37° C. under normoxic conditions (20% O2 concentration). The cells were edited following five days of in vitro culture. […] On day 8, the cells were transferred to Phase 1 media, and differentiation to erythrocytes was performed through day 18 as described above. Efficiency of HDR at the HBB gene locus was evaluated on day 12 using the NGS assay described in Example 4. Also evaluated was the frequency of INDELs at the R02 cut-site as measured by NGS.

[2] = tested on: CD34-expressing LT-HSPCs derived from human patients with sickle cell disease; assay: Hemoglobin expression (HbF, HbA, HbS) by HPLC; format: cell-based
Description: Hemoglobin expressed by edited cells that were differentiated to erythrocytes was assessed. Hemoglobin A (HbA) is composed of 2 alpha-globin and 2 beta-globin units and is the dominant hemoglobin in adult humans. In human carriers of the HBB E6V mutation, a high proportion of total hemoglobin is hemoglobin S (HbS), which is composed of 2 alpha-globin units and 2 beta-globin units with E6V.
Briefly, on day 18 post-editing, 1×10^6 cells were harvested, centrifuged, and washed with PBS. The cells were prepared for HPLC analysis. Hemoglobin variants were quantified in cell samples using reverse-phase HPLC chromatography and gradient elution. […] Thus, high levels of HDR achieved with i53 contribute to normalization of hemoglobin expression products.

hTERT RPE-1 cells = assay: HDR insertion of AAV-delivered GFP donor into AAVS1 locus (GFP fluorescence); format: cell-based, human; details: AAV (DJ serotype) GFP donor and mRNA encoding i53, over AAV alone, FIG. 7
Description: RPE1 cells were lipofected with RNP comprised of Cas9 protein and gRNA targeting the AAVS1 locus (target sequence shown in SEQ ID NO: 3; spacer sequence shown in SEQ ID NO: 4). Cells were edited with 1 μg Cas9 and 1 μg gRNA. Cells were infected with AAV containing homology donor DNA encoding GFP (DJ serotype) as well as mRNA encoding i53 (mRNA ORF shown in SEQ ID NO: 69). […] HDR efficiency was determined by measuring the level of GFP fluorescence in the cells following gene-editing.

[3] = tested on: CD34-expressing LT-HSPCs derived from human patients with sickle cell disease; assay: Erythrocyte functionality: cell-surface markers and enucleation by flow cytometry; format: cell-based; details: day 18 post editing
Description: The ability of edited cells to differentiate to functional erythrocytes was assessed by determining expression of erythrocyte-associated cell surface markers and enucleation using flow cytometry on day 18 post editing.
Briefly, 4×10^5 cells were obtained, and half were stained for erythrocyte cell-surface markers and half were used for detection of enucleation. For staining cell-surface markers, the cells were incubated in PBS containing 1% human serum albumin (PBS-A) and an antibody cocktail of anti-CD233 (BRIC6-Band3)-FITC, anti-CD71-PE, anti-CD235a(GlyA)-PE/Cy7, and anti-CD49d (a4)-VioBlue. For detection of enucleation, 2 drops of NucRed nuclear staining reagent was added to 1 mL PBS-A, and 100 μL was added to plated cells. Following incubation, both cell samples were labeled with Sytox Blue solution (1:1000 dilution in PBS-A) for live/dead analysis. Samples were then assessed by flow cytometry.

CD34-expressing LT-HSPCs = assay: Indel formation at HBB locus by TIDE analysis; format: cell-based, human
Description: Editing efficiency at the HBB locus was evaluated by measuring indel formation by TIDE analysis. […] This group had 1.7-fold reduction in INDEL frequency relative to cells treated with RNP+AAV,

[4] = tested on: human LT-HSPCs administered to cKit mice; assay: Indel formation at HBB locus in mouse bone marrow by TIDE analysis; format: in vivo; details: 16 weeks post engraftment
Description: (§1) NHEJ editing of the HBB locus was also evaluated in mouse bone marrow collected at 16 weeks post engraftment. Indel formation at the site of Cas9/gRNA cutting was evaluated by TIDE analysis in bone marrow samples and compared to indel formation of LT-HSPCs prior to administration.
as §1, with “administration. Regardless of the method used to edit the LT-HSPCs, indel formation was similar at 16 weeks post-engraftment to the level present prior to administration (FIG. 27).” for “administration.”

[5] = day 18 post-editing, compared to mock EP control cells, FIG. 34A

Substance: i53: polypeptide inhibitor of 53BP1 (SEQ ID NO: 70), introduced as an mRNA-encoded protein (ORF SEQ ID NO: 69)
- incorporation of the E6V→E6 gene correction ([1]; R02 RNP + AAV.323 + 1 μg i53 mRNA, FIG. 32A, 34B): 66%
- fold lower frequency of INDELs at the R02 cut site ([1]; compared to cells edited with RNP+AAV.323 alone, FIG. 32B): 1.9 fold
- frequency of INDELs (patient-derived PBMCs; compared to control cells, FIG. 35B): reduced
- frequency of correction of the HBB gene by HDR repair (patient-derived PBMCs; day 12, FIG. 35A): approximately 60%
- level of HDR repair and frequency of INDELs in HBB, PBMCs vs CD34-expressing LT-HSPCs (patient-derived PBMCs; edited in the presence of i53): comparable
- HbA levels [2, 5]: increased
- HbS levels [2, 5]: dramatically reduced
- decrease in HbS levels ([2]; relative to mock EP control cells, FIG. 34B): 90%
- HDR efficiency (hTERT RPE-1 cells): increase
- cell population having enucleation ([3]; comparable to mock EP control cells): > 30%
- cell population CD71−GlyA+ erythrocytes ([3]; similar to mock EP control cells): > 30%
- risk of indel formation within the target gene locus (CD34-expressing LT-HSPCs; CD34+ HSCs contacted with 53BP1 polypeptide inhibitor, summary statement): less than 30%
- level of indel formation (CD34-expressing LT-HSPCs; RNP+AAV in the presence of i53, FIG. 11): lowest
- level of indel formation in bone marrow ([4]; Example 5, FIG. 20): lowest
- level of indel formation in bone marrow ([4]; Example 7, FIG. 27): lowest
